Results on three molecules are retold here after patent US5594030A, “Controlled release pharmaceutical compositions based on one or more pharmaceutically acceptable salts of gamma hydroxy-butyric acid” (Laboratorio Farmaceutico C.T. S.r.l., priority 1993, dated 1997).

Structures can show the parent of a compound that is named as a salt. Where two headings read alike, the source gives them in different places.

For data set [1] the following is noted: cited from earlier work.
The test system of data set [2] is enzymes having the --SH group. The note with it: result in words; cited from earlier work.
Data set [3] is described as follows: GHB average pharmacokinetic parameters after oral administration of different doses (immediate release) to 8 healthy volunteers. Type of data set: in vivo, human (healthy volunteers). Conditions: for Tmax / CL/F / MRT / half-life: human, plasma; for CL/F: read-out: CLo (oral clearance); for MRT: read-out: MRT (average residence time) (converted); for AUC: average (SD); for absorption: result in words, immediate release / aqueous liquid solutions. An excerpt:
GHB Average pharmacokinetic parameters after
administration of different doses to 8 healthy volunteers

A short description of data set [4]: fraction of unbound drug (dialysis). The data set is classed as in vitro ADME. The note with it: predialysis concentration of 25 μg/ml; read-out: fu (fraction of unbound drug). As to the method: ^c determined at a predialysis concentration of 25 μg/ml
peak, tmax absorption time to the peak, fu fraction of unbound

The nature of data set [5]: In vitro dissolution test (paddle test). The note with it: aqueous liquid solutions / formulations on the market; instantaneous. Type of data set: physicochemical. On the procedure: The evaluation test in vitro is carried out with a dissolution test consistent with the apparatus described in the European Pharmacopoeia 2° ed. or UPS XXII ed. ("paddle test"). The dosage, evaluated in the time after 1, 2, 3, 4, 6 and 8 hours, is carried out with 1N hydrochloric acid, taking a known amount from the dissolution medium.
medium: distilled H20 900 ml.
Data obtained are the following (expressed as GHBNa percentage with respect to the total tablet content): […]

The mark [6] stands for this setting: oral 25 mg/kg, normalized at 12.5 mg/kg.
[7] abbreviates: oral 50 mg/kg, normalized at 12.5 mg/kg.

In the case of `CCN(CC)C(=S)SSC(=S)N(CC)CC` [Disulfiram], the toxicity result in data set [1] (Disulfiram by itself, therapeutical doses) is reported as “scarcely toxic”. Further, in data set [1] (alcohol administered after Disulfiram pretreatment), the “blood acetaldehyde concentration vs alcohol dose alone” value was “five to ten times higher”. For the same molecule, the severe events occurred result in data set [1] (as a consequence of Disulfiram treatment) was “depression, myocardial infarction, sudden and unexplained fatalities”. Further, in data set [1] (in vivo), the “side effects (may cause)” value is “acneiform eruptions, allergic dermatitis, urticaria, lassitude, fatigue, tremor, restlessnes, reduced sexual potency, gastric or digestive disturbances”. Also, the enzyme inhibition result in data set [2] was “alters the activity of all enzymes having the --SH group”.

With `O=C(O)CCCO` [GHB, gamma hydroxy butyric acid], the Tmax in data set [3] (oral 12.5 mg/kg, average value (range), read-out: tmax (absorption time to the peak) (converted)) is 25 min; in data set [3] (oral 25 mg/kg, average value (range), read-out: tmax (absorption time to the peak) (converted)) it was 30 min; in data set [3] (oral 50 mg/kg, average value (range), read-out: tmax (absorption time to the peak) (converted)) it was 45 min. The CL/F in data set [3] (oral 12.5 mg/kg) worked out at 14 mL/min/kg; in data set [3] (oral 25 mg/kg), 9 mL/min/kg; in data set [3] (oral 50 mg/kg) it was 7 mL/min/kg. The MRT in data set [3] (oral 12.5 mg/kg) is 45 min; in data set [3] (oral 25 mg/kg), 53 min; in data set [3] (oral 50 mg/kg) it was 70 min. The half-life in data set [3] (oral 12.5 mg/kg, read-out: t^1/2 z (final halflife time)) was 20 min; in data set [3] (oral 25 mg/kg, read-out: t^1/2 z (final halflife time)), 22 min; in data set [3] (oral 50 mg/kg, read-out: t^1/2 z (final halflife time)), 23 min. In addition, the Cmax in data set [3] (oral 12.5 mg/kg) was 23 (9) μg/ml; in data set [3] (setting [6]), 23 (11) μg/ml; in data set [3] (setting [7]), 20 (7) μg/ml. Further, the AUC is recorded as 905 (443) μg/ml min in data set [3] (oral 12.5 mg/kg, 8 healthy volunteers); 1271 (560) μg/ml min in data set [3] (setting [6]); 1565 (548) μg/ml min in data set [3] (setting [7]). The free fraction (fraction unbound) in data set [4] was 0.99.

Turning to `O=C(O)CCCO` [GHBNa, sodium salt of gamma hydroxy butyric acid], in data set [5], the “release of the active substance” value came to 100%. In addition, the Tmax in data set [3] (po, about, summary of table 1 and FIG. 1, read-out: maximum peak after the administration) fell in the range of 30 to 45 min. Besides, the half-life in data set [3] (po, summary of table 1 and FIG. 1, read-out: half life) was 20 to 25 min. Moreover, the absorption result in data set [3] is reported as “rapidly absorbed”; in data set [3] (listed as sodium gamma hydroxy butyrate), “absorbed quickly”. The elimination time in data set [3] (summary of table 1 and FIG. 1) was 4 to 5 h.

Usually MRT stands for the average time that molecules of a dose stay in the body. As usually defined, the fraction unbound is the share of the substance not bound to proteins or other matrix.
